Paper PMC11520566, “Discovery of pyrazole-based analogs as CDK2 inhibitors with apoptotic-inducing activity: design, synthesis and molecular dynamics study” (RSC Advances, 2024)
Read-outs that look alike come from different tables or passages of the source.

Tests used:
NCI-H460 [1] = assay: NCI 60 single dose screen, Non-small cell lung cancer; assay type: cell-based, human; details: single dose 10 μM
Description: (§1) The newly synthesized pyrazoles 2a–g, 7a–d, 8a and b, 9, and 10 were submitted to the National Cancer Institute (NCI) Developmental Therapeutics Program (http://www.dtp.nci.nih.gov) for assessment of their potential antiproliferative activity against a panel of NCI 60 cancer cell lines. All compounds were approved for screening against the approved 60 cancer cell lines at a single dose of 10 μM. The human cancer cell lines were derived from 9 variant cancer types including leukemia, melanoma, lung, colon, CNS, ovarian, renal, prostate and breast cancers. The results are presented as percentage of growth inhibition (GI%) of the screened compounds against the full panel of cell lines.
(§2) Under sterile conditions, the cell lines were grown in RPMI 1640 media (Gibco, NY, USA) supplemented with 10% fetal bovine serum (Biocell, CA, USA), and […] cell/mL was used to test the growth inhibition activity of the synthesized compounds. The compounds with concentrations ranging from 0.01 to 100 μM were prepared in phosphate buffer saline. Each compound was initially solubilized in dimethyl sulfoxide (DMSO); however, each final dilution contained less than 1% DMSO. Solutions of different concentrations (0.2 mL) were pipetted into the separate well of a microtiter tray in duplicate. Cell culture (1.8 mL) containing a cell population of […] cells per mL was pipetted into each well. Controls, containing only phosphate buffer saline and DMSO at identical dilutions, were also prepared in the same manner. These cultures were incubated in a humidified incubator at 37 °C. The incubator was supplied with 5% CO2 atmosphere. After 48 h, the cells in each well were diluted 10 times with saline and counted using a Coulter counter. The counts were corrected for the dilution.[34]

NCI-H322M = assay: as above; assay type: cell-based, human; details: single dose 10 μM
Description: as §1, §2

NCI-H23 = assay: as above; assay type: cell-based, human; details: single dose 10 μM
Description: as §1, §2

OVCAR-4 = assay: NCI 60 five dose assay, Ovarian cancer; assay type: cell-based, human
in vitro = details: human
TK-10 = assay: NCI 60 five dose assay, Renal cancer; assay type: cell-based, human
NCI-H460 [2] = assay: NCI 60 five dose assay, Non-small cell lung cancer; assay type: cell-based, human
CCRF-CEM = assay: NCI 60 five dose assay, Leukemia; assay type: cell-based, human
NCI 60 cell panel = assay: NCI 60 five dose assay, subpanel and full panel means; assay type: cell-based, human
HCC-2998 = assay: NCI 60 five dose assay, Colon cancer; assay type: cell-based, human
HCT-116 cells = assay: Flow cytometry cell cycle analysis; assay type: cell-based; details: 1.806 μM
Description: Cell cycle analysis was conducted to explore the mechanism and the mode of action of the newly synthesized compounds as anticancer agents, typically inducing cytotoxicity by activating signaling pathways that trigger apoptosis.[35] […] Compound 4 was further subjected to cell cycle analysis following the established protocols.[35]
The cell cycle analysis protocol was performed on compound 4 on HCT-116 cells. This test is based on the content of DNA measured by staining using propidium iodide. Initially, the cells were washed in PBS before being kept at 4 °C for 3 min dropwise using the vortex addition of cold 70% ethanol to avoid cell clumping and to ensure fixation as well. Then, […] of a stock of […] ribonuclease was added to selectively stain only DNA. Finally, […] of a stock solution of […] of propidium iodide was added.[35]

M14 = assay: NCI 60 five dose assay, Melanoma; assay type: cell-based, human
MDA-MB-468 = assay: NCI 60 five dose assay, Breast cancer
NCI 60 cancer cell lines = assay: NCI 60 single dose screen, mean over full panel; assay type: cell-based, human; details: mean over NCI 60 cell lines; single dose 10 μM
Description: as §1, §2

KM12 = assay: NCI 60 five dose assay, Colon cancer; assay type: cell-based, human
[3] = Homo sapiens, read-out: LC50 (the source's name)

Which results are given for `CC(=NNc1ccc(S(N)(=O)=O)cc1)c1ccc(NN=C2C(=O)NN=C2Nc2ccccc2)cc1` [Compound 4, 4-(2-(1-(4-(2-(5-oxo-3-(phenylamino)-1,5-dihydro-4H-pyrazol-4-ylidene)hydrazinyl)phenyl)ethylidene)hydrazinyl)benzene sulfonamide]?
GI% (NCI-H460 [1]): 91.13%; GI% (NCI-H322M): 90.78%; GI% (NCI-H23): 99.80%; GI50 (OVCAR-4; Homo sapiens): 2.84 µM; CC50 (OVCAR-4; [3]): 40.7 µM; Percent Growth (OVCAR-4; Log10 Concentration -4.0 Molar): -80%; Percent Growth (OVCAR-4; Log10 Concentration -5.0 Molar): -3%; Percent Growth (OVCAR-4; Log10 Concentration -6.0 Molar): 94%; Percent Growth (OVCAR-4; Log10 Concentration -7.0 Molar): 98%; Percent Growth (OVCAR-4; Log10 Concentration -8.0 Molar): 94%; IC50 (in vitro): 41.2 µM; GI50 (TK-10; Homo sapiens): 18.6 µM; CC50 (TK-10; [3]): > 100 µM; Percent Growth (TK-10; Log10 Concentration -4.0 Molar): -25%; Percent Growth (TK-10; Log10 Concentration -5.0 Molar): 78%; Percent Growth (TK-10; Log10 Concentration -6.0 Molar): 101%; Percent Growth (TK-10; Log10 Concentration -7.0 Molar): 102%; Percent Growth (TK-10; Log10 Concentration -8.0 Molar): 97%; GI50 (NCI-H460 [2]; Homo sapiens): 3.21 µM; CC50 (NCI-H460 [2]; [3]): 45.3 µM; Percent Growth (NCI-H460 [2]; Log10 Concentration -4.0 Molar): -78%; Percent Growth (NCI-H460 [2]; Log10 Concentration -5.0 Molar): 4%; Percent Growth (NCI-H460 [2]; Log10 Concentration -6.0 Molar): 97%; Percent Growth (NCI-H460 [2]; Log10 Concentration -7.0 Molar): 103%; Percent Growth (NCI-H460 [2]; Log10 Concentration -8.0 Molar): 102%; GI50 (CCRF-CEM; Homo sapiens): 2.63 µM; CC50 (CCRF-CEM; [3]): > 100 µM; Percent Growth (CCRF-CEM; Log10 Concentration -4.0 Molar): -31%; Percent Growth (CCRF-CEM; Log10 Concentration -5.0 Molar): -5%; Percent Growth (CCRF-CEM; Log10 Concentration -6.0 Molar): 90%; Percent Growth (CCRF-CEM; Log10 Concentration -7.0 Molar): 100%; Percent Growth (CCRF-CEM; Log10 Concentration -8.0 Molar): 98%; GI50 (NCI 60 cell panel; Colon cancer subpanel, read-out: MG-MID for GI50): 3.33 µM; GI50 (NCI 60 cell panel; Homo sapiens, 60 cell, Breast cancer subpanel, read-out: MG-MID for GI50): 2.36 µM; GI50 (NCI 60 cell panel; Homo sapiens, 60 cell, CNS cancer subpanel, read-out: MG-MID for GI50): 2.39 µM; GI50 (NCI 60 cell panel; Homo sapiens, 60 cell, Colon cancer subpanel, read-out: MG-MID for GI50): 3.33 µM; GI50 (NCI 60 cell panel; Homo sapiens, 60 cell, Leukemia subpanel, read-out: MG-MID for GI50): 2.42 µM; GI50 (NCI 60 cell panel; Homo sapiens, 60 cell, Melanoma subpanel, read-out: MG-MID for GI50): 2.47 µM; GI50 (NCI 60 cell panel; Homo sapiens, 60 cell, Non-small cell lung cancer subpanel, read-out: MG-MID for GI50): 4.79 µM; GI50 (NCI 60 cell panel; Homo sapiens, 60 cell, Ovarian cancer subpanel, read-out: MG-MID for GI50): 4.19 µM; GI50 (NCI 60 cell panel; Homo sapiens, 60 cell, Prostate cancer subpanel, read-out: MG-MID for GI50): 3.13 µM; GI50 (NCI 60 cell panel; Homo sapiens, 60 cell, Renal cancer subpanel, read-out: MG-MID for GI50): 9.18 µM; GI50 (NCI 60 cell panel; Homo sapiens, 60 cell, against almost the whole panel of cancer cell lines, read-out: GI50 range): 1.1 to 5.9 µM; GI50 (NCI 60 cell panel; Homo sapiens, 60 cell, average over all cell lines, read-out: Full panel MG-MID (GI50)): 3.81 µM; GI50 (NCI 60 cell panel; Homo sapiens, 60 cell, range over the nine subpanels, read-out: subpanel GI50 (MG-MID) range): 2.36 to 9.17 µM; GI50 (NCI 60 cell panel; Melanoma subpanel, read-out: MG-MID for GI50): 2.48 µM; GI50 (NCI 60 cell panel; Prostate cancer subpanel, read-out: MG-MID for GI50): 3.14 µM; Selectivity index (NCI 60 cell panel; full panel MG-MID / Breast cancer subpanel MG-MID): 1.614; Selectivity index (NCI 60 cell panel; full panel MG-MID / CNS cancer subpanel MG-MID): 1.595; Selectivity index (NCI 60 cell panel; full panel MG-MID / Colon cancer subpanel MG-MID): 1.143; Selectivity index (NCI 60 cell panel; full panel MG-MID / Leukemia subpanel MG-MID): 1.574; Selectivity index (NCI 60 cell panel; full panel MG-MID / Melanoma subpanel MG-MID): 1.539; Selectivity index (NCI 60 cell panel; full panel MG-MID / Non-small cell lung cancer subpanel MG-MID): 0.795; Selectivity index (NCI 60 cell panel; full panel MG-MID / Ovarian cancer subpanel MG-MID): 0.909; Selectivity index (NCI 60 cell panel; full panel MG-MID / Prostate cancer subpanel MG-MID): 1.215; Selectivity index (NCI 60 cell panel; full panel MG-MID / Renal cancer subpanel MG-MID): 0.415; GI50 (HCC-2998; Homo sapiens): 2.29 µM; CC50 (HCC-2998; [3]): 21.3 µM; Percent Growth (HCC-2998; Log10 Concentration -4.0 Molar): -100%; Percent Growth (HCC-2998; Log10 Concentration -5.0 Molar): -26%; Percent Growth (HCC-2998; Log10 Concentration -6.0 Molar): 93%; Percent Growth (HCC-2998; Log10 Concentration -7.0 Molar): 88%; Percent Growth (HCC-2998; Log10 Concentration -8.0 Molar): 80%; cell cycle result (HCT-116 cells): apoptotic cell growth arrest occurring at the G1 phase; %G2/M (HCT-116 cells; control 6.82): 3.79%; %S (HCT-116 cells; control 33.81): 23.05%; %G0/G1 (HCT-116 cells; control 59.37): 73.16%; cell cycle result (HCT-116 cells; listed as cpd4): cell growth arrest@ G1; GI50 (M14; Homo sapiens): 2.83 µM; CC50 (M14; [3]): 35.1 µM; Percent Growth (M14; Log10 Concentration -4.0 Molar): -80%; Percent Growth (M14; Log10 Concentration -5.0 Molar): -14%; Percent Growth (M14; Log10 Concentration -6.0 Molar): 103%; Percent Growth (M14; Log10 Concentration -7.0 Molar): 101%; Percent Growth (M14; Log10 Concentration -8.0 Molar): 93%; GI50 (MDA-MB-468; Homo sapiens, MDA-MB-468): 1.4 µM; CC50 (MDA-MB-468; Homo sapiens, MDA-MB-468, read-out: LC50): 6.41 µM; TGI (MDA-MB-468; MDA-MB-468): 3 µM; mean GI% (NCI 60 cancer cell lines): 96.47%; GI50 (KM12; Homo sapiens): 2.66 µM; CC50 (KM12; [3]): 29.9 µM; Percent Growth (KM12; Log10 Concentration -4.0 Molar): -100%; Percent Growth (KM12; Log10 Concentration -5.0 Molar): -5%; Percent Growth (KM12; Log10 Concentration -6.0 Molar): 90%; Percent Growth (KM12; Log10 Concentration -7.0 Molar): 101%; Percent Growth (KM12; Log10 Concentration -8.0 Molar): 98%
